Reference: PubChem BioAssay AID2060504 (Molecular Pharmacology Branch, DTP, NCI, 2025)

Tested on: 636577-100-R-J1-PDC complex spheroid viability
Assay: Anticancer human tumor 636577-100-R-J1-PDC patient-derived endometrial adenocarcinoma cell line growth inhibition [GQUAD]
Conditions: for IC50: curve of first compound; for viability, T/C: stronger effect = lower value
Outline: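 Viability of tumor cells grown as complex spheroids with endothelial and stromal cells, exposed to drug combinations. Top concentration at or near clinical Cmax (else 10 microM), diluted in half-log increments.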

[1] = second compound 0.0316 µM, first compound 0.0316 µM
[2] = second compound 0.0316 µM, first compound 0.316 µM
[3] = second compound 0.1 µM, first compound 0.0316 µM
[4] = second compound 0.1 µM, first compound 0.316 µM
[5] = second compound 0.316 µM, first compound 0.0316 µM
[6] = second compound 0.316 µM, first compound 0.316 µM
[7] = second compound 1 µM, first compound 0.0316 µM
[8] = second compound 1 µM, first compound 0.316 µM
[9] = second compound 3.16 µM, first compound 0.0316 µM
[10] = second compound 3.16 µM, first compound 0.316 µM
[11] = second compound 10 µM, first compound 0.0316 µM
[12] = second compound 10 µM, first compound 0.316 µM
[13] = second compound 0.0316 µM, first compound 0.1 µM
[14] = second compound 0.0316 µM, first compound 1 µM
[15] = second compound 0.0316 µM, first compound 3.16 µM
[16] = second compound 0.0316 µM, first compound 10 µM
[17] = second compound 0.1 µM, first compound 0.1 µM
[18] = second compound 0.1 µM, first compound 1 µM
[19] = second compound 0.1 µM, first compound 3.16 µM
[20] = second compound 0.1 µM, first compound 10 µM
[21] = second compound 0.316 µM, first compound 0.1 µM
[22] = second compound 0.316 µM, first compound 1 µM
[23] = second compound 0.316 µM, first compound 3.16 µM
[24] = second compound 0.316 µM, first compound 10 µM
[25] = second compound 1 µM, first compound 0.1 µM
[26] = second compound 1 µM, first compound 1 µM
[27] = second compound 1 µM, first compound 3.16 µM
[28] = second compound 1 µM, first compound 10 µM
[29] = second compound 3.16 µM, first compound 0.1 µM
[30] = second compound 3.16 µM, first compound 1 µM
[31] = second compound 3.16 µM, first compound 3.16 µM
[32] = second compound 3.16 µM, first compound 10 µM
[33] = second compound 10 µM, first compound 0.1 µM
[34] = second compound 10 µM, first compound 1 µM
[35] = second compound 10 µM, first compound 3.16 µM
[36] = second compound 10 µM, first compound 10 µM
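Also: viability read after seven days of drug exposure.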
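For viability, T/C in this document: luminescence signal used as a proxy for viable cells; 100% = DMSO vehicle control wells.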

SMILES: Cc1[nH]c2ccccc2c1CCNCc1ccc(/C=C/C(=O)NO)cc1 + CN(C)c1ccc(Nc2c3ccc(NC(=O)CCN4CCCC4)cc3nc3cc(NC(=O)CCN4CCCC4)ccc23)cc1
- IC50 (second compound 0.0316 µM): 3.84 nM
- IC50 (second compound 0.1 µM): 4.62 nM
- IC50 (second compound 0.316 µM): 4.84 nM
- IC50 (second compound 1 µM): 3.15 nM
- IC50 (second compound 3.16 µM): < 0.999 nM
- IC50 (second compound 10 µM): < 0.999 nM
- viability, T/C (second compound 0.0316 µM, first compound 0.000999 µM): 84%
- viability, T/C (second compound 0.0316 µM, first compound 0.00316 µM): 49.5%
- viability, T/C (second compound 0.0316 µM, first compound 0.00999 µM): 40.6%
- viability, T/C [1]: 15.7%
- viability, T/C (second compound 0.0316 µM, first compound 0.0999 µM): 8.74%
- viability, T/C [2]: 12.3%
- viability, T/C (second compound 0.1 µM, first compound 0.000999 µM): 80.7%
- viability, T/C (second compound 0.1 µM, first compound 0.00316 µM): 56.5%
- viability, T/C (second compound 0.1 µM, first compound 0.00999 µM): 36.1%
- viability, T/C [3]: 14.2%
- viability, T/C (second compound 0.1 µM, first compound 0.0999 µM): 8.43%
- viability, T/C [4]: 8.87%
- viability, T/C (second compound 0.316 µM, first compound 0.000999 µM): 62.3%
- viability, T/C (second compound 0.316 µM, first compound 0.00316 µM): 62.5%
- viability, T/C (second compound 0.316 µM, first compound 0.00999 µM): 30.4%
- viability, T/C [5]: 14%
- viability, T/C (second compound 0.316 µM, first compound 0.0999 µM): 8.97%
- viability, T/C [6]: 9.2%
- viability, T/C (second compound 1 µM, first compound 0.000999 µM): 65.4%
- viability, T/C (second compound 1 µM, first compound 0.00316 µM): 48.6%
- viability, T/C (second compound 1 µM, first compound 0.00999 µM): 31.5%
- viability, T/C [7]: 13.9%
- viability, T/C (second compound 1 µM, first compound 0.0999 µM): 9.95%
- viability, T/C [8]: 10.1%
- viability, T/C (second compound 3.16 µM, first compound 0.000999 µM): 37.1%
- viability, T/C (second compound 3.16 µM, first compound 0.00316 µM): 29.2%
- viability, T/C (second compound 3.16 µM, first compound 0.00999 µM): 20.2%
- viability, T/C [9]: 15.6%
- viability, T/C (second compound 3.16 µM, first compound 0.0999 µM): 10.3%
- viability, T/C [10]: 10.9%
- viability, T/C (second compound 10 µM, first compound 0.000999 µM): 6.06%
- viability, T/C (second compound 10 µM, first compound 0.00316 µM): 7.54%
- viability, T/C (second compound 10 µM, first compound 0.00999 µM): 7.16%
- viability, T/C [11]: 6.21%
- viability, T/C (second compound 10 µM, first compound 0.0999 µM): 6.38%
- viability, T/C [12]: 3.97%

SMILES: COc1cccc2c1C(=O)c1c(O)c3c(c(O)c1C2=O)CC(O)(C(=O)CO)CC3OC1CC(N)C(O)C(C)O1 (stereo unspecified) + Cc1[nH]c2ccc(F)cc2c1-c1nc2c3cccnc3c3ncccc3c2[nH]1
- IC50 (second compound 0.0316 µM): < 31.6 nM
- IC50 (second compound 0.1 µM): < 31.6 nM
- IC50 (second compound 0.316 µM): < 31.6 nM
- IC50 (second compound 1 µM): < 31.6 nM
- IC50 (second compound 3.16 µM): < 31.6 nM
- IC50 (second compound 10 µM): < 31.6 nM
- viability, T/C [1]: 37.8%
- viability, T/C [13]: 16.7%
- viability, T/C [2]: 15.8%
- viability, T/C [14]: 11.2%
- viability, T/C [15]: 0.53%
- viability, T/C [16]: 0.35%
- viability, T/C [3]: 39.7%
- viability, T/C [17]: 18%
- viability, T/C [4]: 8.25%
- viability, T/C [18]: 9.06%
- viability, T/C [19]: 0.53%
- viability, T/C [20]: 0.34%
- viability, T/C [5]: 37%
- viability, T/C [21]: 18.9%
- viability, T/C [6]: 14%
- viability, T/C [22]: 9.89%
- viability, T/C [23]: 0.62%
- viability, T/C [24]: 0.43%
- viability, T/C [7]: 29.9%
- viability, T/C [25]: 18.7%
- viability, T/C [8]: 12.2%
- viability, T/C [26]: 8.92%
- viability, T/C [27]: 0.78%
- viability, T/C [28]: 0.5%
- viability, T/C [9]: 18.3%
- viability, T/C [29]: 18.4%
- viability, T/C [10]: 16.1%
- viability, T/C [30]: 11.4%
- viability, T/C [31]: 0.97%
- viability, T/C [32]: 0.58%
- viability, T/C [11]: 30.1%
- viability, T/C [33]: 18.8%
- viability, T/C [12]: 16.1%
- viability, T/C [34]: 11.9%
- viability, T/C [35]: 0.69%
- viability, T/C [36]: 0.49%

SMILES: COc1ncnc(C2CC2)c1-c1ncc2cnn(Cc3ccc(-c4nc(C(F)(F)F)cn4C(C)C)cc3)c2n1 + Cc1[nH]c2ccc(F)cc2c1-c1nc2c3cccnc3c3ncccc3c2[nH]1
- IC50 (second compound 0.0316 µM): > 10000 nM
- IC50 (second compound 0.1 µM): > 10000 nM
- IC50 (second compound 0.316 µM): > 10000 nM
- IC50 (second compound 1 µM): > 10000 nM
- IC50 (second compound 3.16 µM): < 31.6 nM
- IC50 (second compound 10 µM): < 31.6 nM
- viability, T/C [1]: 86.6%
- viability, T/C [13]: 67.6%
- viability, T/C [2]: 77.3%
- viability, T/C [14]: 57.8%
- viability, T/C [15]: 66.7%
- viability, T/C [16]: 75.3%
- viability, T/C [3]: 74.8%
- viability, T/C [17]: 57.1%
- viability, T/C [4]: 87%
- viability, T/C [18]: 54.6%
- viability, T/C [19]: 79.9%
- viability, T/C [20]: 67.6%
- viability, T/C [5]: 63.8%
- viability, T/C [21]: 60.6%
- viability, T/C [6]: 62.8%
- viability, T/C [22]: 64.5%
- viability, T/C [23]: 77.3%
- viability, T/C [24]: 66.6%
- viability, T/C [7]: 57.8%
- viability, T/C [25]: 59%
- viability, T/C [8]: 60.1%
- viability, T/C [26]: 50.2%
- viability, T/C [27]: 50.1%
- viability, T/C [28]: 57.4%
- viability, T/C [9]: 20.8%
- viability, T/C [29]: 27.6%
- viability, T/C [10]: 22.6%
- viability, T/C [30]: 28.4%
- viability, T/C [31]: 27.5%
- viability, T/C [32]: 26.1%
- viability, T/C [11]: 28.9%
- viability, T/C [33]: 29.5%
- viability, T/C [12]: 26.4%
- viability, T/C [34]: 27.1%
- viability, T/C [35]: 32.1%
- viability, T/C [36]: 32.6%
